Tests used:
Experiment in all cases: relative viability (nuclei count vs DMSO), 5 days (fraction); higher = more cells survive
[1] = compound: C1CCC(CC1)N(CCNCCC2=C3C(=C(C=C2)O)NC(=O)CO3)C(=O)CCNCCC4=CC(=C(C=C4)Cl)Cl [AZ505] + Cc1cc(Nc2cc(N3CCN(C)CC3)nc(Sc3ccc(NC(=O)C4CC4)cc3)n2)n[nH]1 [Tozasertib] (partner 0.1 µM)
How it was run: (§1)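 The day after seeding in 1536-well plates, lung cancer cell lines were treated by pin tool with a single drug, or with a fixed anchor-drug dose together with five library-drug doses (not always all listed) in √10 steps. After 5 days, a combined fix-and-stain solution (final 0.05% Triton X-100, 1% formaldehyde, 1 ug/ml Hoechst) was added. Nuclei counted on 4× images gave relative viability as treated counts over vehicle counts, reported as the median of duplicate plates.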

[2] = compound: Cn1c(=O)n(-c2ccc(C(C)(C)C#N)cc2)c2c3cc(-c4cnc5ccccc5c4)ccc3ncc21 [Dactolisib] + CC1(C)CCC(c2ccc(Cl)cc2)=C(CN2CCN(c3ccc(C(=O)NS(=O)(=O)c4ccc(N[C@H](CCN5CCOCC5)CSc5ccccc5)c(S(=O)(=O)C(F)(F)F)c4)cc3)CC2)C1 [Navitoclax] (partner 0.5 µM)
How it was run: as §1

[3] = compound: Cn1c(=O)n(-c2ccc(C(C)(C)C#N)cc2)c2c3cc(-c4cnc5ccccc5c4)ccc3ncc21 [Dactolisib] + C[C@]1(O)C[C@@H](c2nc(-c3ccc4ccc(-c5ccccc5)nc4c3)c3c(N)nccn32)C1 [Linsitinib] (partner 1 µM)
How it was run: as §1

[4] = compound: Cn1c(=O)n(-c2ccc(C(C)(C)C#N)cc2)c2c3cc(-c4cnc5ccccc5c4)ccc3ncc21 [Dactolisib] + CC(=O)c1c(C)c2cnc(Nc3ccc(N4CCNCC4)cn3)nc2n(C2CCCC2)c1=O [Palbociclib] (partner 0.5 µM)
How it was run: as §1

Cell Line LCLC-97TM1 has a relative viability ([1]; first compound 0.08 µM) of 0.218, a relative viability ([1]; first compound 0.253 µM) of 0.196 and a relative viability ([1]; first compound 0.8 µM) of 0.214. It also gave a relative viability ([1]; first compound 2.53 µM) of 0.316, a relative viability ([1]; first compound 8 µM) of 0.302 and a relative viability ([2]; first compound 0.002 µM) of 0.503. The relative viability ([2]; first compound 0.006325 µM) was 0.33, the relative viability ([2]; first compound 0.02 µM) was 0.3 and the relative viability ([2]; first compound 0.06325 µM) was 0.202. For the same cell line, the relative viability ([2]; first compound 0.2 µM) was 0.192, the relative viability ([3]; first compound 0.002 µM) was 0.157 and the relative viability ([3]; first compound 0.006325 µM) was 0.186. It also gave a relative viability ([3]; first compound 0.02 µM) of 0.208, a relative viability ([3]; first compound 0.06325 µM) of 0.157 and a relative viability ([3]; first compound 0.2 µM) of 0.132. For the same cell line, the relative viability ([4]; first compound 0.002 µM) was 0.217, the relative viability ([4]; first compound 0.006325 µM) was 0.252 and the relative viability ([4]; first compound 0.02 µM) was 0.194. It also gave a relative viability ([4]; first compound 0.06325 µM) of 0.161 and a relative viability ([4]; first compound 0.2 µM) of 0.0966.

Work on NCI-H727 yielded a relative viability ([1]; first compound 0.08 µM) of 0.645, a relative viability ([1]; first compound 0.253 µM) of 0.53 and a relative viability ([1]; first compound 0.8 µM) of 0.525. The relative viability ([1]; first compound 8 µM) was 0.581, the relative viability ([2]; first compound 0.002 µM) was 0.467 and the relative viability ([2]; first compound 0.006325 µM) was 0.506. For the same cell line, the relative viability ([2]; first compound 0.02 µM) was 0.341, the relative viability ([2]; first compound 0.06325 µM) was 0.248 and the relative viability ([2]; first compound 0.2 µM) was 0.162. The relative viability ([3]; first compound 0.002 µM) was 0.271, the relative viability ([3]; first compound 0.006325 µM) was 0.317 and the relative viability ([3]; first compound 0.02 µM) was 0.266. It also gave a relative viability ([3]; first compound 0.06325 µM) of 0.213, a relative viability ([3]; first compound 0.2 µM) of 0.37 and a relative viability ([4]; first compound 0.006325 µM) of 0.693. It also gave a relative viability ([4]; first compound 0.02 µM) of 0.658, a relative viability ([4]; first compound 0.06325 µM) of 0.581 and a relative viability ([4]; first compound 0.2 µM) of 0.513.

For H3255, the relative viability ([1]; first compound 0.08 µM) was 0.639, the relative viability ([1]; first compound 0.253 µM) was 1.17 and the relative viability ([1]; first compound 0.8 µM) was 0.564. The relative viability ([1]; first compound 2.53 µM) was 0.503, the relative viability ([1]; first compound 8 µM) was 0.577 and the relative viability ([2]; first compound 0.002 µM) was 0.724. The relative viability ([2]; first compound 0.006325 µM) was 0.488, the relative viability ([2]; first compound 0.02 µM) was 0.426 and the relative viability ([2]; first compound 0.06325 µM) was 0.458. The relative viability ([2]; first compound 0.2 µM) was 0.176, the relative viability ([3]; first compound 0.002 µM) was 1.13 and the relative viability ([3]; first compound 0.006325 µM) was 0.919. The relative viability ([3]; first compound 0.02 µM) was 0.967, the relative viability ([3]; first compound 0.06325 µM) was 0.626 and the relative viability ([3]; first compound 0.2 µM) was 0.416. The relative viability ([4]; first compound 0.002 µM) was 0.332, the relative viability ([4]; first compound 0.006325 µM) was 0.305 and the relative viability ([4]; first compound 0.02 µM) was 0.321. The relative viability ([4]; first compound 0.06325 µM) was 0.313 and the relative viability ([4]; first compound 0.2 µM) was 0.314.

Work on SK-MES-1 yielded a relative viability ([1]; first compound 0.08 µM) of 0.853, a relative viability ([1]; first compound 0.253 µM) of 0.863 and a relative viability ([1]; first compound 0.8 µM) of 0.898. For the same cell line, the relative viability ([1]; first compound 2.53 µM) was 0.785, the relative viability ([1]; first compound 8 µM) was 0.884 and the relative viability ([2]; first compound 0.002 µM) was 1.34. It also gave a relative viability ([2]; first compound 0.006325 µM) of 1.17, a relative viability ([2]; first compound 0.02 µM) of 1.1 and a relative viability ([2]; first compound 0.06325 µM) of 0.574. For the same cell line, the relative viability ([2]; first compound 0.2 µM) was 0.55, the relative viability ([3]; first compound 0.002 µM) was 1.1 and the relative viability ([3]; first compound 0.006325 µM) was 1.12. The relative viability ([3]; first compound 0.02 µM) was 0.999, the relative viability ([3]; first compound 0.06325 µM) was 0.953 and the relative viability ([3]; first compound 0.2 µM) was 0.467. For the same cell line, the relative viability ([4]; first compound 0.002 µM) was 0.297, the relative viability ([4]; first compound 0.006325 µM) was 0.298 and the relative viability ([4]; first compound 0.02 µM) was 0.269. The relative viability ([4]; first compound 0.06325 µM) was 0.247 and the relative viability ([4]; first compound 0.2 µM) was 0.214.

NCI-H1437 gave a relative viability ([1]; first compound 0.08 µM) of 0.396, a relative viability ([1]; first compound 0.253 µM) of 0.424 and a relative viability ([1]; first compound 0.8 µM) of 0.382. For the same cell line, the relative viability ([1]; first compound 2.53 µM) was 0.391, the relative viability ([1]; first compound 8 µM) was 0.403 and the relative viability ([2]; first compound 0.002 µM) was 1.2. It also gave a relative viability ([2]; first compound 0.006325 µM) of 1.07, a relative viability ([2]; first compound 0.02 µM) of 1.07 and a relative viability ([2]; first compound 0.06325 µM) of 0.967. For the same cell line, the relative viability ([2]; first compound 0.2 µM) was 0.837, the relative viability ([3]; first compound 0.002 µM) was 1.05 and the relative viability ([3]; first compound 0.006325 µM) was 0.985. The relative viability ([3]; first compound 0.02 µM) was 0.981, the relative viability ([3]; first compound 0.06325 µM) was 0.596 and the relative viability ([3]; first compound 0.2 µM) was 0.315. The relative viability ([4]; first compound 0.002 µM) was 0.321, the relative viability ([4]; first compound 0.006325 µM) was 0.328 and the relative viability ([4]; first compound 0.02 µM) was 0.369. The relative viability ([4]; first compound 0.06325 µM) was 0.274 and the relative viability ([4]; first compound 0.2 µM) was 0.215.

LU99A gave a relative viability ([1]; first compound 0.253 µM) of 0.306, a relative viability ([1]; first compound 0.8 µM) of 0.279 and a relative viability ([1]; first compound 2.53 µM) of 0.286. For the same cell line, the relative viability ([1]; first compound 8 µM) was 0.332, the relative viability ([2]; first compound 0.002 µM) was 0.704 and the relative viability ([2]; first compound 0.006325 µM) was 0.689. It also gave a relative viability ([2]; first compound 0.02 µM) of 0.291, a relative viability ([2]; first compound 0.06325 µM) of 0.173 and a relative viability ([2]; first compound 0.2 µM) of 0.185. It also gave a relative viability ([3]; first compound 0.002 µM) of 0.572, a relative viability ([3]; first compound 0.006325 µM) of 0.468 and a relative viability ([3]; first compound 0.02 µM) of 0.307. For the same cell line, the relative viability ([3]; first compound 0.06325 µM) was 0.218, the relative viability ([3]; first compound 0.2 µM) was 0.223 and the relative viability ([4]; first compound 0.002 µM) was 0.419. The relative viability ([4]; first compound 0.006325 µM) was 0.37, the relative viability ([4]; first compound 0.02 µM) was 0.297 and the relative viability ([4]; first compound 0.06325 µM) was 0.216. It also gave a relative viability ([4]; first compound 0.2 µM) of 0.181.

HCC-827 gave a relative viability ([1]; first compound 0.08 µM) of 0.421, a relative viability ([1]; first compound 0.253 µM) of 0.426 and a relative viability ([1]; first compound 0.8 µM) of 0.448. The relative viability ([1]; first compound 2.53 µM) was 0.436, the relative viability ([1]; first compound 8 µM) was 0.447 and the relative viability ([2]; first compound 0.002 µM) was 1.03. It also gave a relative viability ([2]; first compound 0.006325 µM) of 1.02, a relative viability ([2]; first compound 0.02 µM) of 1.06 and a relative viability ([2]; first compound 0.06325 µM) of 0.905. For the same cell line, the relative viability ([2]; first compound 0.2 µM) was 0.687, the relative viability ([3]; first compound 0.002 µM) was 1.02 and the relative viability ([3]; first compound 0.006325 µM) was 0.919. The relative viability ([3]; first compound 0.02 µM) was 1.03, the relative viability ([3]; first compound 0.06325 µM) was 0.911 and the relative viability ([3]; first compound 0.2 µM) was 0.699. For the same cell line, the relative viability ([4]; first compound 0.002 µM) was 0.473, the relative viability ([4]; first compound 0.006325 µM) was 0.518 and the relative viability ([4]; first compound 0.02 µM) was 0.47. For the same cell line, the relative viability ([4]; first compound 0.06325 µM) was 0.36 and the relative viability ([4]; first compound 0.2 µM) was 0.171.

With LK-2 the relative viability ([1]; first compound 0.08 µM) was 0.17, the relative viability ([1]; first compound 0.253 µM) was 0.167 and the relative viability ([1]; first compound 0.8 µM) was 0.197. It also gave a relative viability ([1]; first compound 2.53 µM) of 0.167, a relative viability ([1]; first compound 8 µM) of 0.184 and a relative viability ([2]; first compound 0.002 µM) of 0.773. The relative viability ([2]; first compound 0.006325 µM) was 0.852, the relative viability ([2]; first compound 0.02 µM) was 0.639 and the relative viability ([2]; first compound 0.06325 µM) was 0.381. It also gave a relative viability ([2]; first compound 0.2 µM) of 0.282, a relative viability ([3]; first compound 0.002 µM) of 0.389 and a relative viability ([3]; first compound 0.006325 µM) of 0.508. It also gave a relative viability ([3]; first compound 0.02 µM) of 0.507, a relative viability ([3]; first compound 0.06325 µM) of 0.169 and a relative viability ([3]; first compound 0.2 µM) of 0.251. The relative viability ([4]; first compound 0.002 µM) was 0.513, the relative viability ([4]; first compound 0.006325 µM) was 0.653 and the relative viability ([4]; first compound 0.02 µM) was 0.491. It also gave a relative viability ([4]; first compound 0.06325 µM) of 0.212 and a relative viability ([4]; first compound 0.2 µM) of 0.167.

— the supplement of paper PMC10307832
